Blank lines part the entries; values can stand above or below the compound they belong to. Activity calls are given as the source filed them. The rule behind the calls is not given here.
Columns and labels:
[1] = target: T1, von Hippel-Lindau disease tumor suppressor/Bromodomain-containing protein 4 (Homo sapiens, UniProt O60885+P40337); experiment: (§1) PROTAC activity at VHL/BRD4 in HEK293 cells assessed as induction of BRD4 degradation by measuring maximal level of degradation at 1 uM measured every 15 mins for 24 hrs in presence of BRD4 based ligand ((4S)-6-(4-chlorophenyl)-4-(2-(ethylamino)-2-oxoethyl)-1-methyl4Hbenzo[f][1,2,4]triazolo [4,3-a][1,4]diazepin-8-yl)boronic acid by HiBiT based Combinatorial Ubiquitination Real-time PROteolysis analysis; assay type: cell-based
T1 sequence (P40337 whole entry, looked up, other chains not shown): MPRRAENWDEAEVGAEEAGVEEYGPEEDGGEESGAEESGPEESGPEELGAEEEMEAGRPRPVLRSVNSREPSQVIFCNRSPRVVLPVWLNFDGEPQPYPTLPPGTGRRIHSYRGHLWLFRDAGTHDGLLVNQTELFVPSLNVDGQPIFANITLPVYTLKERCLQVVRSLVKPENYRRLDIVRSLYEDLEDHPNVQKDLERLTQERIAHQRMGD

[2] = target: T1, von Hippel-Lindau disease tumor suppressor/Bromodomain-containing protein 4; experiment: (§2) PROTAC activity at BRD4/VHL in human MCF7 cells assessed as induction of BRD4 degradation by measuring residual activity at 10 uM incubated for 24 hrs in presence of BRD4 based ligand ((4S)-6-(4-chlorophenyl)-4-(2-(ethylamino)-2-oxoethyl)-1-methyl4Hbenzo[f][1,2,4]triazolo [4,3-a][1,4]diazepin-8-yl)boronic acid by Western blot based Combinatorial Ubiquitination Real-time PROteolysis analysis; assay type: cell-based
[3] = target: T1, von Hippel-Lindau disease tumor suppressor/Bromodomain-containing protein 4; experiment: as §1, with “measuring Tmax” for “measuring maximal level of degradation”, “at 3” for “at 1”; assay type: cell-based
[4] = target: T1, von Hippel-Lindau disease tumor suppressor/Bromodomain-containing protein 4; experiment: as §2, with “activity at 100 nM incubated for” for “activity at 10 uM incubated for”, “presence of 100 nM BRD4 based” for “presence of BRD4 based”; assay type: cell-based
MV4-11 = experiment: Antitumor activity against human MV4-11 cells xenografted in nude mouse assessed as reduction in BRD4 level in tumor at 10 mg/kg, ip administered for 4 hrs and measured at 9 to 12 hrs in presence of BRD4 based ligand ((4S)-6-(4-chlorophenyl)-4-(2-(ethylamino)-2-oxoethyl)-1-methyl4Hbenzo[f][1,2,4]triazolo [4,3-a][1,4]diazepin-8-yl)boronic acid; assay type: functional, organism-based; details: time 9-12 hrs
[5] = target: T1, von Hippel-Lindau disease tumor suppressor/Bromodomain-containing protein 4; experiment: as §2, with “activity at 1 uM incubated” for “activity at 10 uM incubated”, “presence of 1 uM BRD4 based” for “presence of BRD4 based”; assay type: cell-based
[6] = target: T1, von Hippel-Lindau disease tumor suppressor/Bromodomain-containing protein 4; experiment: PROTAC activity at VHL/BRD4 in HEK293 cells assessed as induction of BRD4 degradation by measuring degradation rate at 10 uM measured every 15 mins for 24 hrs in presence of BRD4 based ligand ((4S)-6-(4-chlorophenyl)-4-(2-(ethylamino)-2-oxoethyl)-1-methyl4Hbenzo[f][1,2,4]triazolo [4,3-a][1,4]diazepin-8-yl)boronic acid by HiBiT based Combinatorial Ubiquitination Real-time PROteolysis analysis; assay type: cell-based
[7] = target: T1, von Hippel-Lindau disease tumor suppressor/Bromodomain-containing protein 4; experiment: as §2, with “activity at 1 uM incubated” for “activity at 10 uM incubated”, “presence of 10 uM BRD4 based” for “presence of BRD4 based”; assay type: cell-based
[8] = target: T1, von Hippel-Lindau disease tumor suppressor/Bromodomain-containing protein 4; experiment: as §2, with “activity at 30 nM incubated for” for “activity at 10 uM incubated for”, “presence of 10 uM BRD4 based” for “presence of BRD4 based”; assay type: cell-based
[9] = target: T1, von Hippel-Lindau disease tumor suppressor/Bromodomain-containing protein 4; experiment: PROTAC activity at VHL/BRD4 in human MCF7 cells assessed as induction of BRD4 degradation at 10 uM incubated for 24 hrs in presence of BRD4 ligand based ((4S)-6-(4-chlorophenyl)-4-(2-(ethylamino)-2-oxoethyl)-1-methyl4Hbenzo[f][1,2,4]triazolo [4,3-a][1,4]diazepin-8-yl)boronic acid by Western blot based Combinatorial Ubiquitination Real-time PROteolysis analysis; assay type: cell-based
[10] = target: T1, von Hippel-Lindau disease tumor suppressor/Bromodomain-containing protein 4; experiment: (§3) PROTAC activity at BRD4/VHL in human MCF7 cells assessed as induction of BRD4 degradation by measuring residual activity at 30 nM incubated for 24 hrs in presence of 1 uM VHL based ligand (2S,4R)-1-((S)-2-(2,3-dihydroxybenzamido)-3,3-dimethylbutanoyl)-4-hydroxy-N-(4-(4-methylthiazol-5-yl)benzyl)pyrrolidine-2-carboxamide by Western blot based Combinatorial Ubiquitination Real-time PROteolysis analysis; assay type: cell-based
[11] = target: T1, von Hippel-Lindau disease tumor suppressor/Bromodomain-containing protein 4; experiment: as §3, with “10 uM” for “30 nM”; assay type: cell-based
[12] = target: T1, von Hippel-Lindau disease tumor suppressor/Bromodomain-containing protein 4; experiment: as §3, with “100” for “30”, “100 nM” for “1 uM”; assay type: cell-based
[13] = target: T1, von Hippel-Lindau disease tumor suppressor/Bromodomain-containing protein 4; experiment: (§4) PROTAC activity at VHL/BRD4 in HEK293 cells assessed as induction of BRD4 degradation by measuring Tmax at 3 uM measured every 15 mins for 24 hrs in presence of VHL based ligand (2S,4R)-1-((S)-2-(2,3-dihydroxybenzamido)-3,3-dimethylbutanoyl)-4-hydroxy-N-(4-(4-methylthiazol-5-yl)benzyl)pyrrolidine-2-carboxamide by HiBiT based Combinatorial Ubiquitination Real-time PROteolysis analysis; assay type: cell-based
[14] = target: T1, von Hippel-Lindau disease tumor suppressor/Bromodomain-containing protein 4; experiment: as §3, with “of 10” for “of 1”; assay type: cell-based
[15] = target: T1, von Hippel-Lindau disease tumor suppressor/Bromodomain-containing protein 4; experiment: as §3, with “10 uM” for “30 nM”, “300 nM” for “1 uM”; assay type: cell-based
[16] = target: T1, von Hippel-Lindau disease tumor suppressor/Bromodomain-containing protein 4; experiment: as §3, with “of” for “of 1 uM”; assay type: cell-based
[17] = target: T1, von Hippel-Lindau disease tumor suppressor/Bromodomain-containing protein 4; experiment: as §4, with “measuring maximal level of degradation” for “measuring Tmax”, “at 0.3” for “at 3”; assay type: cell-based
[18] = target: T1, von Hippel-Lindau disease tumor suppressor/Bromodomain-containing protein 4; experiment: as §3, with “3 uM” for “30 nM”, “100 nM” for “1 uM”; assay type: cell-based
[19] = target: T1, von Hippel-Lindau disease tumor suppressor/Bromodomain-containing protein 4; experiment: as §3, with “at 3 uM” for “at 30 nM”, “of 3” for “of 1”; assay type: cell-based
[20] = target: T1, von Hippel-Lindau disease tumor suppressor/Bromodomain-containing protein 4; experiment: as §2, with “reduction in” for “induction of”, “level” for “degradation by measuring residual activity at 10 uM”; assay type: cell-based
[21] = target: T1, von Hippel-Lindau disease tumor suppressor/Bromodomain-containing protein 4; experiment: as §3, with “10 uM” for “30 nM”, “of” for “of 1 uM”; assay type: cell-based
[22] = target: Protein cereblon/Bromodomain-containing protein 4 (Homo sapiens) (UniProt O60885+Q96SW2); experiment: PROTAC activity at BRD4/CRBN in human HeLa cells assessed as induction of BRD4 degradation at 10 uM incubated for 24 hrs in presence of CRBN based ligand (1S,4R,5R,6S)-N-((2-(2,6-dioxopiperidin-3-yl)-1,3-dioxoisoindolin-4-yl)methyl)-5,6-dihydroxybicyclo[2.2.1]heptane-2-carboxamide by Western blot analysis based Combinatorial Ubiquitination Real-time PROteolysis analysis; assay type: cell-based
Protein cereblon/Bromodomain-containing protein 4 (Homo sapiens), sequence (Q96SW2 whole entry, looked up, other chains not shown): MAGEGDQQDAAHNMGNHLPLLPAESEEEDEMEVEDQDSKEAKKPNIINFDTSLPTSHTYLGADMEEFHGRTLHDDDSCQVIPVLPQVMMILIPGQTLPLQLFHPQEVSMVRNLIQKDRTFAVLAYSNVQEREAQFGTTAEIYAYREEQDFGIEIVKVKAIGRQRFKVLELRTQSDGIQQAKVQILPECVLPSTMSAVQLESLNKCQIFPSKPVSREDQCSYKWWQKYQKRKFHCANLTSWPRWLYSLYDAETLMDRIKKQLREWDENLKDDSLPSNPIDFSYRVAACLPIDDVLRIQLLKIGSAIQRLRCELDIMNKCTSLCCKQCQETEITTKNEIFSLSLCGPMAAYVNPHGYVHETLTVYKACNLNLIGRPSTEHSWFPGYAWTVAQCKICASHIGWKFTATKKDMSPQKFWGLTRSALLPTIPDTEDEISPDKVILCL

[23] = target: T1, von Hippel-Lindau disease tumor suppressor/Bromodomain-containing protein 4; experiment: as §4, with “maximal level of degradation” for “Tmax”; assay type: cell-based

Emax [1]: 80%
Activity [2]: 95%
Tmax [3]: 18 h
Activity [4]: 97%
Activity [5]: 35%
Activity [6]: 4.18 h⁻¹
Activity [7]: 20%
Activity [8]: 76%
Activity [9]: Active
Compound: Cc1ncsc1-c1ccc(CNC(=O)[C@@H]2C[C@@H](O)CN2C(=O)[C@@H](NC(=O)c2cccc(O)c2O)C(C)(C)C)cc1
Activity (MV4-11): Active

Compound: CCNC(=O)C[C@@H]1N=C(c2ccc(Cl)cc2)c2cc(B(O)O)ccc2-n2c(C)nnc21
Activity [10]: 96%
Activity [11]: 21%
Activity [12]: 97%
Tmax [13]: 18 h
Activity [14]: 76%
Activity [15]: 48%
Activity [16]: 91%
Emax [17]: 47%
Activity [18]: 51%
Activity [19]: 16%
Activity [20]: inactive
Activity [21]: 95%
Activity [22]: inactive
Emax [23]: 93%

From ChEMBL document CHEMBL5543126, “Combinatorial Ubiquitination REal-time PROteolysis (CURE-PROs): A Modular Platform for Generating Reversible, Self-Assembling Bifunctional Targeted Degraders” (J Med Chem, 2024)
